{
  "source": "patent EP0006845A1",
  "about": "“Pharmaceutical composition comprising a 5-aroyl-1-C1-5 alkyl-pyrrole-2-acetic acid compound and acetaminophen or acetylsalicylic acid” (McNeilab, Inc., priority 1978, dated 1980)",
  "key": {"adjuvant arthritic rats [1]": {"system": "adjuvant arthritic rats", "assay": "adjuvant arthritis test, evaluation of bone degeneration (osteogenic changes) in the non-injected hind paw", "assay_type": "in vivo, female Wistar, Lewis rats", "details": "Rattus norvegicus", "text": "(§1) The efficacy of the novel combination of this invention in inhibiting inflammation and osteogenic degeneration is particularly seen in the adjuvant arthritis test. […] The adjuvant arthritis test, a test in which adjuvant arthritis which results both in inflammation and osteogenic changes is induced by Mycobacterium butvricum and in which the effect of the test compounds on each effect can be Determined, is considered to be .most useful for evaluation of compounds which may be suitable for the treatment of rheumatoid arthritis and other arthritic diseases. The test procedure, in which the effect on inflammation is determined by paw volume changes and the effect on osteogenic changes is determined by microscopic observation, is described by Wong et al, in J. Pharmacol.Exp.Ther. 185, 127-138, 1973, and is employed in the present determination of the potentiation of the antiarthritic properties of 5-aroyl-l-loweralkyl-pyrrole-2-acetic acid derivatives by aspirin or acetaminophen.\n(§2) Briefly, in this procedure, adjuvant arthritis is induced in female Wistar, Lewis rats (Charles River Breeding Laboratories. Inc., Wiimington, Mass.) weighing 160-190 gm by a single subcutaneous injection of 0.75 mg Mycobacterium butyricum (Difco) into the left hind paw. The non-injected hind paw remains a normal size for the first seven days. Swelling begins to appear in the non-injected paw of the first rats on Day 8. Using the paw volume determination technique (a technique in which rat paws are dippedin mercury to the hairline and the volume of displacement determined by a modified Van Arman mercury displacement method as described in the aforementioned paper of Wong et al), the time progress curve of volume changes in the non-injected (contralateral) paw is followed. […] The mean onset time for 100 rats is found to be 11.6 days with a standard deviation of 1.9 days and the frequency of onset time values distributed normally between Days 8 and 19. Thus, determinations of antiarthritic activity are made in the period Day 11 to Day 28.\n(§3) For determination of anti-inflammatory properties two different evaluations are made: (a) the evaluation of paw volume during the Phase II and Phase III periods and, (b) the evaluation of osteogenic (bone) degenration during the Phase IV period.\nFor evaluation of bone degenerations, normal and adjuvant arthritic rats are sacrificed under C02, after the paw volume measurements have been completed on Day 28. The hind legs are removed above the knees and skinned and the soft tissues dissected away with care to avoid injury to bone and articular structures. The leg bones are then immersed in 2 percent potassium hydroxide solution for approximately four to five days until the remaining soft tissues becomes properly macerated and/or transparent, and the bones are fully visible. The leg bones are stained with Alizarin Red (0.01 percent in 2 percent KOH) for eight hours, and then processed through increasing concentrations of glycerol in water (20, 40, 60, 80 and 100 percent) for purposes of clearing the tissues for microscopic observation. The distal end of the tibiae, the tarsals, metatarsals, phalanges, and sesamoids are evaluated under a Stereozoom Microscope (a special type of dissecting microscope, product of Bausch and Lomb).\nOsteogenic changes for each bone (in 31 bone categories) in the non-injected hind paw are graded on a scale of from 0 to 10 (increasing numerical value corresponding to increasing severity of bone degeneration). A total bone degeneration score is obtained (maximum score/paw = 310 points) and then expressed as a percent score. The mean percent score (95 percent confidence limits) for saline control groups from 26 experiments (184 animals) is found to be 53.4 (50.9-55.9). Percent score values for drug treated animals are expressed as a percent inhibition relative to the mean for the saline control group. Data is evaluated statistically and ED50 values with 95 percent confidence limits are calculated."}, "adjuvant arthritic rats [2]": {"system": "adjuvant arthritic rats", "assay": "adjuvant arthritis test, evaluation of paw volume of the non-injected hind paw", "assay_type": "in vivo, female Wistar, Lewis rats", "text": "as §1, §2, §3\nFor evaluation of paw volume, adjuvant arthritic rats with early but significant signs of arthritis in the contralateral paw are selected on Day 11 and randomly assigned to the various groups of 10 animals in each group. All test -animals are dosed-daily (per os) with the test compound, preferably as sodium salt, or in saline for 17 days (Days 11 to 27 inclusive). Control animals are dosed with an equivalent volume of saline. The paw volumes of the non-injected paws are determined initially on Day 11 and again on Days 15, 18, 22, 25, and 28. The paw volumes are then compared with normal paw volumes of adjuvant arthitic rats previously determined from a reference curve relating normal paw volume to body weight. The volume of each individual rat which is greater than the normal volume is utilized in the analysis of the data. Values for drug treated animals are expressed as a percent inhibition of the paw volume change relative to the mean value for saline controls. Data is evaluated statistically and ED50 values with 95 percent confidence limits are calculated. The method for statistical analysis is described in detail in the aforementioned paper of Wong et al. The term \"ED50\" refers to the dose of drug required to produce 50 percent antagonism of the paw volume changes observed in the saline treated adjuvant arthritis controls. Suppression of paw volume changes reflects anti-inflammatory and antiarthritic activity of a test drug."}},
  "data": [
    {"smiles": "Cc1ccc(C(=O)c2ccc(CC(=O)O)n2C)cc1", "note": "[Tolmetin, 1-methyl-5-p-toluoyl-pyrrole-2-acetic acid]", "values": [
      {"measurement": "inhibition at 7.5 mg/kg", "setting": "adjuvant arthritic rats [1]; Tolmetin 7.5 mg/kg/day alone, read-out: Percent Inhibition of Bone Degeneration ± S.E.", "result": "18.6 ± 6.9", "unit": "%"},
      {"measurement": "inhibition at 30 mg/kg", "setting": "adjuvant arthritic rats [1]; Tolmetin 30.0 mg/kg/day alone, read-out: Percent Inhibition of Bone Degeneration ± S.E.", "result": "26.3 ± 3.7", "unit": "%"},
      {"measurement": "inhibition at 120 mg/kg", "setting": "adjuvant arthritic rats [1]; Tolmetin 120.0 mg/kg/day alone, read-out: Percent Inhibition of Bone Degeneration ± S.E.", "result": "51.7 ± 6.4", "unit": "%"},
      {"measurement": "inhibition at 5.6 mg/kg", "setting": "adjuvant arthritic rats [1]; bone degeneration, Tolmetin 5.6 mg/kg/day alone, read-out: Percent Inhibition ± S. E.", "result": "26.6 ± 7", "unit": "%"},
      {"measurement": "inhibition at 11.1 mg/kg", "setting": "adjuvant arthritic rats [1]; bone degeneration, Tolmetin 11.1 mg/kg/day alone, read-out: Percent Inhibition ± S. E.", "result": "28.7 ± 7.7", "unit": "%"},
      {"measurement": "inhibition at 16.7 mg/kg", "setting": "adjuvant arthritic rats [1]; bone degeneration, Tolmetin 16.7 mg/kg/day alone, read-out: Percent Inhibition ± S. E.", "result": "27.5 ± 4.9", "unit": "%"},
      {"measurement": "inhibition at 33.3 mg/kg", "setting": "adjuvant arthritic rats [1]; bone degeneration, Tolmetin 33.3 mg/kg/day alone, read-out: Percent Inhibition ± S. E.", "result": "33.4 ± 3.9", "unit": "%"},
      {"measurement": "inhibition at 50 mg/kg", "setting": "adjuvant arthritic rats [1]; bone degeneration, Tolmetin 50.0 mg/kg/day alone, read-out: Percent Inhibition ± S. E.", "result": "34.9 ± 2.7", "unit": "%"},
      {"measurement": "inhibition at 100 mg/kg", "setting": "adjuvant arthritic rats [1]; bone degeneration, Tolmetin 100 mg/kg/day alone, read-out: Percent Inhibition ± S. E.", "result": "54.2 ± 1.9", "unit": "%"},
      {"measurement": "ED50", "setting": "adjuvant arthritic rats [1]; Table III, ED50 of tolmetin without acetaminophen, read-out: ED50 values", "result": 110, "unit": "mg/kg"},
      {"measurement": "ED50", "setting": "adjuvant arthritic rats [1]; Table V, ED50 of tolmetin without Aspirin, read-out: ED50", "result": 89.7, "unit": "mg/kg"},
      {"measurement": "ED50", "setting": "adjuvant arthritic rats [1]; drug alone, suppression of osteogenic changes, data from several experiments pooled, read-out: ED50 and 95 percent C.L.", "result": 110, "unit": "mg/kg"},
      {"measurement": "ED50", "setting": "adjuvant arthritic rats [2]; Rattus norvegicus, 672 h, Table IV, ED50 of tolmetin without Aspirin, Day 28, read-out: ED50", "result": 32, "unit": "mg/kg"},
      {"measurement": "inhibition at 5.6 mg/kg", "setting": "adjuvant arthritic rats [2]; Rattus norvegicus, 672 h, Tolmetin 5.6 mg/kg/day alone, Day 28, read-out: Percent Inhibition ± S.E. (Day 28)", "result": "30.5 ± 5.1", "unit": "%"},
      {"measurement": "inhibition at 11.1 mg/kg", "setting": "adjuvant arthritic rats [2]; Rattus norvegicus, 672 h, Tolmetin 11.1 mg/kg/day alone, Day 28, read-out: Percent Inhibition ± S.E. (Day 28)", "result": "34.5 ± 8", "unit": "%"},
      {"measurement": "inhibition at 16.7 mg/kg", "setting": "adjuvant arthritic rats [2]; Rattus norvegicus, 672 h, Tolmetin 16.7 mg/kg/day alone, Day 28, read-out: Percent Inhibition ± S.E. (Day 28)", "result": "58.4 ± 8.1", "unit": "%"},
      {"measurement": "inhibition at 33.3 mg/kg", "setting": "adjuvant arthritic rats [2]; Rattus norvegicus, 672 h, Tolmetin 33.3 mg/kg/day alone, Day 28, read-out: Percent Inhibition ± S.E. (Day 28)", "result": "50.8 ± 8.4", "unit": "%"},
      {"measurement": "inhibition at 50 mg/kg", "setting": "adjuvant arthritic rats [2]; Rattus norvegicus, 672 h, Tolmetin 50 mg/kg/day alone, Day 28, read-out: Percent Inhibition ± S.E. (Day 28)", "result": "62.6 ± 2.7", "unit": "%"},
      {"measurement": "inhibition at 100 mg/kg", "setting": "adjuvant arthritic rats [2]; Rattus norvegicus, 672 h, Tolmetin 100 mg/kg/day alone, Day 28, read-out: Percent Inhibition ± S.E. (Day 28)", "result": "66.4 ± 3.9", "unit": "%"},
      {"measurement": "ED50", "setting": "adjuvant arthritic rats [2]; Rattus norvegicus, Table II, tolmetin without acetaminophen, read-out: ED50 values of Tolmetin", "result": 32, "unit": "mg/kg"},
      {"measurement": "inhibition at 7.5 mg/kg", "setting": "adjuvant arthritic rats [2]; Rattus norvegicus, Tolmetin 7.5 mg/kg/day alone, read-out: Percent Inhibition of Paw Volume ± S.E.", "result": "37.8 ± 8.8", "unit": "%"},
      {"measurement": "inhibition at 30 mg/kg", "setting": "adjuvant arthritic rats [2]; Rattus norvegicus, Tolmetin 30.0 mg/kg/day alone, read-out: Percent Inhibition of Paw Volume ± S.E.", "result": "49.3 ± 9.7", "unit": "%"},
      {"measurement": "inhibition at 120 mg/kg", "setting": "adjuvant arthritic rats [2]; Rattus norvegicus, Tolmetin 120.0 mg/kg/day alone, read-out: Percent Inhibition of Paw Volume ± S.E.", "result": "78.4 ± 3", "unit": "%"},
      {"measurement": "ED50", "setting": "adjuvant arthritic rats [2]; Rattus norvegicus, po, 360 h, drug given alone per os, Day 15, read-out: ED50 Values and 95 Percent C.L.", "result": 42.1, "unit": "mg/kg"},
      {"measurement": "ED50", "setting": "adjuvant arthritic rats [2]; Rattus norvegicus, po, 432 h, drug given alone per os, Day 18, read-out: ED50 Values and 95 Percent C.L.", "result": 40.6, "unit": "mg/kg"},
      {"measurement": "ED50", "setting": "adjuvant arthritic rats [2]; Rattus norvegicus, po, 528 h, drug given alone per os, Day 22, read-out: ED50 Values and 95 Percent C.L.", "result": 32.4, "unit": "mg/kg"},
      {"measurement": "ED50", "setting": "adjuvant arthritic rats [2]; Rattus norvegicus, po, 600 h, drug given alone per os, Day 25, read-out: ED50 Values and 95 Percent C.L.", "result": 29.5, "unit": "mg/kg"},
      {"measurement": "ED50", "setting": "adjuvant arthritic rats [2]; Rattus norvegicus, po, 672 h, drug given alone per os, Day 28, read-out: ED50 Values and 95 Percent C.L.", "result": 26.4, "unit": "mg/kg"},
      {"measurement": "ED50 Values and 95 Percent C.L.", "setting": "adjuvant arthritic rats [2]; drug given alone per os, Day 28, 40320 min", "result": "26.4 (22.3 - 29.6) mg/kg/day"}
    ]}
  ]
}
